The text below walks through data of patent publication US10202650B2, “Methods for monitoring ELOVL2, KLF14 and PENK gene expression following treatment with vitamin C” (The Regents of the University of California, priority 2016, dated 2019).

Common to all, as to format: cell-based, human
The subject of assay [1] is WI38 fibroblasts. As to the kind of experiment: Proliferation (confluency) of WI38 fibroblasts, Example 1. To be noted: for cell proliferation: concentration not stated. As to the method:
(§1) The proliferation effects of vitamin C on WI38 fibroblasts were tested. This cell line is useful as an aging model since it is a mortal human cell line that follows the Hayflick limit, in that it undergoes a certain number of cell divisions before stopping. The senescence level in WI38 increased as the cell line divided. […] A membrane-soluble derivative of vitamin C, 6-O-Palmitoyl-L-ascorbic acid (PalmAA), which has an additional fatty acid that allows it to pass through the cell membrane, was also tested. The oxidized derivative of vitamin C, dehydroascorbic acid (DHAA), as Vitamin C is actively converted to DHAA in cell culture media, was tested as well. Insulin was also added to this experiment to upregulate Glut-1 transporter, through which DHAA enters the cell.
A) Cell images of 12-well plate treated with low concentration vitamin C at Day 0, 4 and 5 for PD46. B) Confluency plot calculated through ImageJ of PD46, n=2. C) and D) Expression graphs for ARM (e.g., ELOVL2) and SLC2A1 for PD46, n=3. E) Cell images of 12-well treated with high concentration vitamin C at Day 0, 4 and 5 for PD48. F) Confluency plot calculated through ImageJ of PD48, n=2. G) and […]) Expression graphs for ARM and SLC2A1 for PD48, n=3.
FIG. 2 illustrates phenotypic and genotypic effects of vitamin C treatment were analyzed on younger WI38 PD42 and older WI38 PD58 fibroblasts. A) Cell images of 12-well at Day 0, 1 and 2 of treatment for PD42. B) Confluency plot calculated through ImageJ of PD42, n=2. C) and D) Expression graphs for ARM (e.g., ELOVL2) and SLC2A1 for PD42, n=3. E) Cell images of 12-well at Day 0, 5 and 7 of treatment for PD58. F) Confluency plot calculated through ImageJ of PD58, n=2. G) and H) Expression graphs for ARM (e.g., ELOVL2) and SLC2A1 for […], n=3. I) Cell images of senescence and DAPI staining of PD45.5 fibroblasts. J) Graph of percentage senescence for younger PD32 fibroblast and older PD45.5 fibroblast. n=3.
A) Cell images of 12-well at Day 0 and Day 8 of treatment for PD55. B) Confluency plot calculated through ImageJ for PD55, n=2. C) and D) Expression graph for ARM (e.g., ELOVL2) and SLC2A1 for PD55, n=3.
A) Diagram of postulated pathway for interconversion of DHAA to vitamin C and their effect on fibroblast cells. B) Cell images of 12-well at Day 10 of treatment for PD54. C) Confluency plot calculated through ImageJ of PD54, n=2. D and E) Expression graphs for ARM (e.g., ELOVL2) and SLC2A1 for PD54, n=3. F) Graph of percentage senescence for younger PD32 fibroblast and older PD45.5 fibroblast. n=3. G) Fluorescent ROS assay showing fluorescent ROS relative to total fibroblasts in PD48 fibroblasts.

Assay [2] deals with ELOVL2. As to the kind of experiment: Expression of age-related marker (ARM, e.g. ELOVL2) in WI38 fibroblasts, Example 1. The method, then:
as §1
A) Cell images of 12-well plate treated with low concentration vitamin C at Day 0, 4 and 5 for PD46. B) Confluency plot calculated through ImageJ of PD46, n=2. […] F) Confluency plot calculated through ImageJ of PD48, n=2. […]
FIG. 2 illustrates phenotypic and genotypic effects of vitamin C treatment were analyzed on younger WI38 PD42 and older WI38 PD58 fibroblasts. […] B) Confluency plot calculated through ImageJ of PD42, n=2. […] F) Confluency plot calculated through ImageJ of PD58, n=2. […]
A) Cell images of 12-well at Day 0 and Day 8 of treatment for PD55. B) Confluency plot calculated through ImageJ for PD55, n=2. […]

In assay [3] the test system is WI38 cells at PD55. As to the kind of experiment: WI38 PD55 confluency / cell proliferation, Example 6. The method, then: (§2) WI38 cells at PD55 (55th population doubling) were incubated with different concentrations of vitamin C (Vc), L-dehydro ascorbic acid (DHAA or DHA), or L-ascorbic acid 2-phosphate (VcP). DHAA (or DHA) is an oxidized form of vitamin C. L-ascorbic acid 2-phosphate (VcP) is a vitamin C derivative. Three concentrations were used for each tested compound and the concentrations included 0.3 mM (equivalent to […]), 1.2 mM, or 1.8 mM.

In assay [4] the test system is WI38 cells at PD55. As to the kind of experiment: Cell senescence of WI38 PD55 by beta gal staining assay. As to the method:
as §2

The subject of assay [5] is ELOVL2. In words: ELOVL2 expression in aging WI38 cells (PD55). The method, then:
as §2
The expression of ELOVL2 is also observed to be increased with a low concentration of vitamin C and all concentrations of L-ascorbic acid 2-phosphate (VcP) but not with DHAA (FIG. 27).

Assay [6] deals with aged fibroblast. In words: Reversal of biological age / reprogramming of aged fibroblast into iPSCs. To be noted: low concentration. The method, then: As used herein, the terms “biological age (bioage),” “chemical age,” “methylomic age,” and “molecular age” are equivalent or synonymous. The biological age is determined using a set of age-associated markers (e.g., epigenetic markers) of a subject or an organism. In the current disclosure, the biological age is determined from an analysis of the modification status of specific CpG dinucleotide and, in particular, e.g., the methylation status at the C-5 position of cytosine.

[7] abbreviates: all three concentrations (0.3 mM, 1.2 mM, 1.8 mM).
The mark [8] stands for this setting: all concentrations (0.3 mM, 1.2 mM, 1.8 mM).

`CCCCCCCCCCCCCCCC(=O)OC[C@H](O)[C@H]1OC(=O)C(O)=C1O` [6-O-Palmitoyl L-ascorbic acid, 6-O-Palmitoyl-L-ascorbic acid]: the cell proliferation entry in assay [1] is reported as “induced minimal proliferation”. Also, the “gene expression change in the age related marker” value in assay [2] is given as “caused no gene expression change in the age related marker”.
On to `O=C1O[C@H]([C@@H](O)CO)C(=O)C1=O` [DHAA, dehydroascorbic acid], for which the cell proliferation result in assay [1] is recorded as “induced lower cell proliferation compared to an equal concentration of vitamin C”; in assay [3] (setting [7]) it was “increased cell proliferation is not observed”. Also, the “protection against cell senescence” value in assay [4] (setting [8]) was “did not exert a protective effect against cell senescence”. For the same molecule, the “expression of ELOVL2” value in assay [5] (setting [8]) is given as “not”.
In the case of `O=C1O[C@H]([C@@H](O)CO)C(O)=C1OP(=O)(O)O` [L-ascorbic acid 2-phosphate], the cell proliferation result in assay [3] (setting [7]) is recorded as “cell proliferation is observed”. For the same molecule, the “protection against cell senescence” value in assay [4] (setting [8]) is “protective against cell senescence”. In addition, the “expression of ELOVL2” value in assay [5] (setting [8]) is given as “increased”.
As for `O=C1O[C@H]([C@@H](O)CO)C(O)=C1O` [vitamin C, L-ascorbic acid], the “proliferative effect, older vs younger fibroblast cells” value in assay [1] (50 μg/mL) is “more pronounced on older fibroblast cells compared to younger fibroblast cells”. For the same molecule, in assay [1] (higher concentrations, 200 μg/mL to 500 μg/mL), the “fibroblast cell growth / cell death” value is listed as “slowed or inhibited fibroblast cell growth while causing cell death”. For the same molecule, in assay [1] (low concentrations, 50 μg/mL to 100 μg/mL), the fibroblast proliferation result is recorded as “induced fibroblast proliferation”. Moreover, the cell proliferation rate result in assay [3] (higher concentration, 1.2 mM or 1.8 mM, relative to 0.3 mM) is “slower cell proliferation rate relative to the concentration at 0.3 mM”. For the same molecule, the cell proliferation entry in assay [3] (low concentration, 0.3 mM) is listed as “increase cell proliferation”. The “protection against cell senescence” value in assay [4] (low concentration) is given as “protective against cell senescence”. Besides, the “expression of ELOVL2” value in assay [5] (low concentration) is on record as “increased”. In assay [6], the biological age entry is recorded as “reversed” and the “reprogramming of aged fibroblast into iPSCs” value was “reverted into iPSCs from aged fibroblast”.
